Measured values reported in patent US20180185374A1, “INHIBITORS OF MTOR KINASE AS ANTI-VIRAL AGENTS” (THE TRUSTEES OF PRINCETON UNIVERSITY, priority 2009, published 2018).

Test system: eIF4F complex
Test: m7GTP-Sepharose cap-binding assay, HCMV-infected fibroblasts
Type: cell-based, human
Conditions: rapamycin 20 nM, Torin1 250 nM
Procedure: FIG. 4. Rapamycin-resistant mTOR activity is required for 4EBP1 phosphorylation and eIF4F complex integrity during HCMV infection. Serum-starved confluent human fibroblasts were infected with HCMV at a multiplicity of 3 PFU/cell. […] (A) At 48 hpi the phosphorylation status of mTORC1 targets was assessed by Western blot assay by using antibodies to phosphorylated targets (4EBP1-PT^37/46 and rpS6-PS^235/6) and total proteins. Tubulin was assayed as a loading control. (B) Same as above (A) except that cells were harvested at the indicated times. (C and D) After mock infection (M) or infection with HCMV (WT) at a multiplicity of 3 PFU/cell, cultures were harvested at the indicated times. Equivalent amounts of protein from each sample were incubated with m^7GTP-Sepharose, and the isolated protein complexes were analyzed by Western blotting using the indicated antibodies to the eIF4F complex and 4EBP1. In all cases the results are representative of at least two independent experiments. lys, lysate.
The phosphorylation status of 4EBP1 regulates cap-dependent protein translation. Hypophosphorylated 4EBP1 binds to eIF4E and inhibits the formation of the eIF4F complex, while the phosphorylation of 4EBP1 inhibits its interaction with eIF4E. […]

CCC(=O)N1CCN(c2ccc(-n3c(=O)ccc4cnc5ccc(-c6cnc7ccccc7c6)cc5c43)cc2C(F)(F)F)CC1 [Torin1]
association of 4EBP1 with m7GTP-Sepharose: substantially increased association
association of eIF4G and eIF4A with the cap analog: reduced association
